In US7687507B2, “Pyrrolo[2,3-d]pyrimidine compounds” (Pfizer Inc., priority 1998, dated 2010):

melting point	SMILES
170 to 172 °C	CCN(Cc1ccccc1)c1ncnc2[nH]ccc12 [Example 2, Benzyl-ethyl-(7H-pyrrolo[2,3-d]pyrimidin-4-yl)-amine]
173 to 175 °C	C=CCN(c1ncnc2[nH]ccc12)C1CCCC1 [Example 6, Allyl-cyclopentyl-(7H-pyrrolo[2,3-d]pyrimidin-4-yl)-amine]
168 to 169 °C	CCN(c1ncnc2[nH]ccc12)C1CCCCCC1 [Example 14, Cycloheptyl-ethyl-(7H-pyrrolo[2,3-d]pyrimidin-4-yl)-amine]
155 to 156 °C	CCN(c1ncnc2[nH]ccc12)C1CCCCCCC1 [Example 15, Cyclooctyl-ethyl-(7H-pyrrolo[2,3-d]pyrimidin-4-yl)-amine]
146 to 148 °C	CCC(C)N(C)c1ncnc2[nH]ccc12 (centres unmarked) [Example 26, sec-Butyl-methyl-(7H-pyrrolo[2,3-d]pyrimidin-4-yl)-amine]
221 °C (dec.)	Cc1cc2c(N(C)C3CCCCC3)ncnc2[nH]1 [Example 87, Cyclohexyl-methyl-(6-methyl-7H-pyrrolo[2,3-d]pyrimidin-4-yl)-amine]
162 to 163 °C	c1nc(SC2CCCCC2)c2cc[nH]c2n1 [Example 90, 4-Cyclohexylsulfanyl-7H-pyrrolo[2,3-d]pyrimidine]
170 to 172 °C	Clc1c[nH]c2ncnc(N3CCCCC3)c12 [Example 91, 5-Chloro-4-piperidin-1-yl-7H-pyrrolo[2,3-d]pyrimidine]
152 to 153 °C	CN(c1ncnc2[nH]cc(Cl)c12)C1CCCCCC1 [Example 93, (5-Chloro-7H-pyrrolo[2,3-d]pyrimidin-4-yl)-cycloheptyl-methyl-amine]
151 to 153 °C	CN(c1ncnc2[nH]cc(Cl)c12)C1CCCCCCC1 [Example 94, (5-Chloro-7H-pyrrolo[2,3-d]pyrimidin-4-yl)-cyclooctyl-methyl-amine]
200 °C	CN(c1ncnc2[nH]cc(-c3ccccc3)c12)C1CCCCC1 [Example 96, Cyclohexyl-methyl-(5-phenyl-7H-pyrrolo[2,3-d]pyrimidin-4-yl)amine]
220 °C	CN(c1ncnc2[nH]cc(-c3ccc(F)cc3)c12)C1CCCCC1 [Example 97, Cyclohexyl-[5-(4-fluoro-Phenyl)-7H-pyrrolo[2,3-d]pyrimidin-4-yl]-methyl-amine]
209 to 211 °C	N#Cc1c[nH]c2ncnc(N3CCCCC3)c12 [Example 100, 4-Piperidin-1-yl-7H-pyrrolo[2,3-d]pyrimidine-5-carbonitrile]
179 to 181 °C	C#Cc1c[nH]c2ncnc(N3CCCCC3)c12 [Example 101, 5-Ethynyl-4-piperidin-1-yl-7H-pyrrolo[2,3-d]pyrimidine]
